Structures are written as SMILES.

Consider two compounds from patent publication US20170304359A1, “ORAL IODINE DOSAGE FORM” (priority 2016, published 2017).

Data set [1] concerns MCF7, MDA-MB231, MCF10A, and primary cells. It counts as cell-based, human.
Data set [2] deals with breast cancer and fibrocystic cell lines. In words: qRT-PCR gene expression analysis. It counts as cell-based, human. Particulars: molecular iodine treatment. Here is the method: An in vitro study was performed to assess the effect of molecular iodine in breast cancer and fibrocystic breast cell lines relative to the effects in human mammary epithelial cells (HMEC)(“primary cells”). The study measured gene expression for key markers in each of the cell lines following in vitro addition to the cells of cell media mixtures that comprised iodine species.
As mentioned in the previous paragraph, each of the four cell lines described in the previous paragraph was added to a sample of each of the six cell media mixtures CM1 to CM6. As an untreated control, one sample for each cell line was mixed with media only. Real-time reverse transcription polymerase chain reaction (qRT-PCR) was used to measure several key mRNA markers for apoptosis and cell growth in breast tissue for each combination of cell line and cell media mixture. The measured markers for cell growth were Cyclin D1, Cyclin E1, Cyclin B1, CDK2, and CDKN1B. The measured markers for apoptosis were BCL2 and Caspase 3. Cyclin D1 is required for progression through the G1 phase of the cell cycle. Cyclin E1 is required for cell cycle G1/S transition. Cyclin B1 is involved in the early events of mitosis, such as chromosome condensation, nuclear envelop breakdown, and spindle pole assembly. CDK2 is required for the transition from G1 to S phase and binding with Cyclin A is required to progress through the S phase. CDKN1B binds to and prevents the activation of cyclin E-CDK2 or Cyclin D-CDK4 complexes, and thus controls the cell cycle progression at G1. BCL2 plays an important role in promoting cellular survival and inhibiting the actions of pro-apoptotic proteins. Caspase 3 plays a central role in the execution phase of cell apoptosis. […] Table 4 presents the data normalized to the corresponding data for the primary cells when added to CM6.
BCL-2, an inhibitor of cell death, was increased, while expression of caspase-3 was decreased.

Data set [3] relates to fibrocystic breast condition. To be noted: about 3 to about 12 mg of molecular iodine per day; clinical trials (Kessler 2004; Ghent 1993); cited from earlier work.
The conditions of data set [4]: Aceves et al. 2013; cited from earlier work.
For data set [5] the following is noted: Aceves et al. 2013; cited from earlier work. This is another data set of the same source.

Turning to `[I-].[K+]` [CM3, potassium iodide, reference compound], the “selectivity for apoptosis and cell proliferation between cancerous or fibrocystic cells and healthy human mammary epithelial cells” value in data set [1] is “not present”.

Turning to `II` [molecular iodine], the “susceptibility of breast cancer cell lines compared to primary cells (cell death)” value in data set [1] (24 hours, FIG. 3) is “more susceptible”. Also, in data set [2], the “effects on cell growth in both breast cancer and FBC” value is recorded as “potent inhibitory effects”. In data set [2] (quantitative RT-PCR), the BCL-2 expression result is “increased”, the “Cyclin B expression levels” value is recorded as “No significant changes”, the “expression of caspase-3” value is recorded as “decreased” and the “expression of cell cycle genes controlling G1-S phase transition” value is given as “largely up-regulated”. Also, in data set [2] (quantitative RT-PCR), the “expression of nuclear hormone receptor PPAR-α” value is “up-regulated” and the “expression of nuclear hormone receptor PPAR-γ” value is “up-regulated”. In addition, the “treatment of fibrocystic breast condition” value in data set [3] is “effective”. In data set [4], the “difference in uptake in the thyroid between molecular iodine and iodide” value is on record as 3-4 fold. In data set [5], the “uptake difference between molecular iodine and iodide in the breast” value is given as “small uptake difference”.
